Key:
Type in all cases: cell-based
[1] = target: T1, interaction between the KRS protein and the laminin receptor (LR) (Homo sapiens, UniProt Q15046); assay: Yeast Two Hybrid inhibition of the interaction between the KRS protein and the laminin receptor (LR); conditions: 1 μL of 20 mM DMSO solution per 200 μL culture; 30° C., 6 days; absorbance 540 nm; non-treated control = 100%
T1 construct: expressed in transfected cells; host or cells: yeast EGY/SH cells
Protocol: The inhibitory activity against the interaction between the KRS protein and the laminin receptor (LR) was evaluated according to the Yeast Two Hybrid method described in WO2011/056021. According to the disclosures of WO2011/056021, we prepared a vector obtained by cloning the KRS gene in the LexA vector (Clontech) and a vector obtained by cloning the LR gene in the B42 vector (Clontech). The yeast cells, i.e., EGY/SH cells were co-transformed with the LexA-KRS vector and the B42-LR vector. The co-transformation was carried out using the Yeastmaker yeast transformation system2 kit (Clontech), according to the manufacturer's instruction. […] The cultured yeast cells were diluted with the said galactose medium, until the absorbance at 540 nm attains to about 0.15 to 0.2. The diluted culture (200 μL), containing the yeast cells, was added to each well of a 96-well plate. Each test compound was dissolved in dimethyl sulfoxide at a concentration of 20 mM and then the resulting solutions (1 μL) were added to each well. The plate was cultured at 30° C. for 6 days and then the absorbance of the each well was measured at 540 nm.
(§1) And also, specificity of the inhibitory activity was evaluated, using the yeast cells cotransformed with the LexA-KRS vector and the B42-AIMP2 vector; and the yeast cells co-transformed with the LexA-KRS vector and the B42-AIMP3 vector, which were respectively prepared according to WO2011/056021. The co-transformation was carried out using the Yeastmaker yeast transformation system2 kit (Clontech), according to the manufacturer's instruction. […] The cultured yeast cells were diluted with the said galactose medium, until the absorbance at 540 nm attains to about 0.15 to 0.2. The diluted culture (200 μL), containing the yeast cells, was added to each well of a 96-well plate. Each test compound was dissolved in dimethyl sulfoxide at a concentration of 20 mM and then the resulting solutions (1 μL) were added to each well. The plate was cultured at 30° C. for 6 days and then the absorbance of each well was measured at 540 nm. The respective yeast cell proliferation rates (%) in the treated samples were calculated in comparison with those of the non-treated control (100%) and the results thereof are shown in Table 1 below.
When KRS is bound to LR, the trans-activation domain is come close to the DNA-binding domain and the genes for synthesizing essential amino acids are expressed, which leads to normal growth of the transformed yeasts, thereby increasing the absorbance.

[2] = target: T2, binding between KRS and AIMP2 (Homo sapiens, UniProt Q15046); assay: Yeast Two Hybrid specificity test, LexA-KRS / B42-AIMP2 co-transformed yeast cells; conditions: 1 μL of 20 mM DMSO solution per 200 μL culture; 30° C., 6 days; absorbance 540 nm; non-treated control = 100%
T2 construct: expressed in transfected cells; host or cells: yeast cells (co-transformed)
T2 sequence (Q15046 whole entry): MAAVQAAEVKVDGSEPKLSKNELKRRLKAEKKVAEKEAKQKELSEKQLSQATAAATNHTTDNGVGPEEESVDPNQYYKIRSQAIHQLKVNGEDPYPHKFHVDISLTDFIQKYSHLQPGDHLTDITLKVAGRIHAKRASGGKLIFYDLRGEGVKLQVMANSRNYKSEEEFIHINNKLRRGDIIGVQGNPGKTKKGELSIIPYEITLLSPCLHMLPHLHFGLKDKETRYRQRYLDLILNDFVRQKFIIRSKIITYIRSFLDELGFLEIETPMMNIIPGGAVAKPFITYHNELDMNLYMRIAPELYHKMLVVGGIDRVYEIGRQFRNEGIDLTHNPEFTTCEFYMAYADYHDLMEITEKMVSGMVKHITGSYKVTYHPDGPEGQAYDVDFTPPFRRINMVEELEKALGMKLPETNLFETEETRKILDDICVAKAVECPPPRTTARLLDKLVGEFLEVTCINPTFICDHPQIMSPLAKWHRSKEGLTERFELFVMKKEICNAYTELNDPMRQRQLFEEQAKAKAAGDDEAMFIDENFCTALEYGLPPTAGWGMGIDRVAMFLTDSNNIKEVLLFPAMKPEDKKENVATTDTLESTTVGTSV
Protocol: as §1

[3] = target: T3, binding between KRS and AIMP3 (Homo sapiens, UniProt Q15046); assay: Yeast Two Hybrid specificity test, LexA-KRS / B42-AIMP3 co-transformed yeast cells; conditions: 1 μL of 20 mM DMSO solution per 200 μL culture; 30° C., 6 days; absorbance 540 nm; non-treated control = 100%
T3 construct: expressed in transfected cells; host or cells: yeast cells (co-transformed)
T3 sequence (Q15046 whole entry): as above
Protocol: as §1

A549 cells = assay: Cell Migration Assay (transwell, laminin); conditions: Homo sapiens, laminin 10 μg/mL in lower well, test compounds 0.39˜100 μM, 6 hours at 37° C.
Protocol: Cell migration was measured with a 24-well transwell having a polycarbonate membrane (8.0 μm pore size, Costar) at the bottom of the upper chamber. Each lower well was treated with laminin (10 μg/mL) and test compounds (0.39˜100 μM) along with a serum-free RPMI1640 medium. A549 cells (Korean Cell Line Bank) were suspended in a serum-free RPMI1640 medium at a concentration of 1×10^6 cells/mL and then the test compounds were added thereto at the indicated concentrations. Each resulting solution (100 μL) was added to the upper chamber. The cells were cultured at 37° C. for 6 hours in a CO2 incubator. The upper chamber was taken out and then the cells were fixed with PBS containing 70% methyl alcohol for 10 minutes, followed by washing with PBS twice. The cells were stained with hematoxylin (Sigma) for 10 minutes and then washed with distilled water. The non-migrated cells were removed from the upper portion of the polycarbonate membrane with a cotton swab. The membranes were excised and separated from the chamber, and then mounted to a slide using a gel mount reagent (Biomeda, USA). The migrated cells (attached to the lower face of the membrane) were counted at three randomly selected sites under a microscope (×20). The cell counting was performed with the Image J program. From the counted cell numbers, each IC50 value was calculated by non-linear regression curve fit using the “GraphPad Prism” program.
The cells are pulled by laminin residing in the lower chamber and then passed through the polycarbonate membrane, so as to attach to the lower face of the membrane.

T1 sequence (Q15046 whole entry): as above

| Compound | Yeast cell proliferation rates KRS-LR (%) [1] [%] | Yeast cell proliferation rates KRS-AIMP2 (%) [2] [%] | Yeast cell proliferation rates KRS-AIMP3 (%) [3] [%] | IC50 (A549 cells) [µM] |
| --- | --- | --- | --- | --- |
| CCC(C(=O)O)n1c(=NC(=O)c2ccc(C)cc2)sc2c(F)cccc21 (centres unmarked) [Example 93, 2-[7-fluoro-2-(4-methylbenzoylimino)benzo[d]thiazol-3(2H)-yl]butanoic acid] | 33.2 | 88.5 | 102.7 | 17.6 |
| Cc1ccc2c(sc(=NC(=O)c3cccc(Cl)c3)n2C(C)C(=O)O)c1F (centres unmarked) [Example 424, 2-(2-((3-chlorobenzoyl)imino)-7-fluoro-6-methylbenzo[d]thiazol-3(2H)-yl)propionic acid] | 15.6 | 99.9 | 104.6 | 78 |
| O=C(O)Cn1c(=NC(=O)c2cccc(Cl)c2)sc2ccc(Cl)cc21 [Example 312, 2-(5-chloro-2-(3-chlorobenzoylimino)benzo[d]thiazol-3(2H)-yl)acetic acid] | 14.6 | 89.6 | 99.0 | 36 |
| CC(C(=O)O)n1c(=NC(=O)c2cccc(C(F)(F)F)c2)sc2c(F)cc(F)cc21 (centres unmarked) [Example 458, 2-(5,7-difluoro-2-((3-(trifluoromethyl)benzoyl)imino)benzo[d]thiazol-3(2H)-yl)propionic acid] | 30.8 | 96.4 | 100.0 | 61 |
| CCC(C(=O)O)n1c(=NC(=O)c2ccc(C)cc2)sc2cc(C(F)(F)F)ccc21 (centres unmarked) [Example 155, 2-[2-(4-methylbenzoylimino)-6-(trifluoromethyl)benzo[d]thiazol-3(2H)-yl]butanoic acid] | 29.7 | 102.4 | 100.0 | 16.7 |
| CCC(C(=O)O)n1c(=NC(=O)c2cccc(C(F)(F)F)c2)sc2ccccc21 (centres unmarked) [Example 142, 2-[2-(3-(trifluoromethyl)benzoylimino)benzo[d]thiazol-3(2H)-yl]butanoic acid] | 39.4 | 95.0 | 106.5 | 14.7 |
| CCC(C(=O)O)n1c(=NC(=O)c2cccc(Cl)c2)sc2cc(C)ccc21 (centres unmarked) [Example 59, 2-{2-[(3-chlorobenzoyl)imino]-6-methylbenzo[d]thiazol-3(2H)-yl}butanoic acid] | 31.7 | 97.7 | 80.8 | 29.6 |
| CCC(C(=O)O)n1c(=NC(=O)c2cccc(Cl)c2)sc2ccccc21 (centres unmarked) [Example 139, 2-[2-(3-chlorobenzoylimino)benzo[d]thiazol-3(2H)-yl]butanoic acid] | 31.5 | 79.4 | 102.1 | 18.9 |
| CCC(C(=O)O)n1c(=NC(=O)c2cccc(Cl)c2)sc2c(F)c(Cl)ccc21 (centres unmarked) [Example 386, 2-(6-chloro-2-((3-chlorobenzoyl)imino)-7-fluorobenzo[d]thiazol-3(2H)-yl)butanoic acid] | 11.2 | 103.9 | 106.3 | 8.3 |
| Cc1ccc(C(=O)N=c2sc3c(Cl)cccc3n2C(C)C(=O)O)cc1 (centres unmarked) [Example 109, 2-[7-chloro-2-(4-methylbenzoylimino)benzo[d]thiazol-3(2H)-yl]propionic acid] | 30.2 | 102.0 | 98.2 | 57 |
| CCC(C(=O)O)n1c(=NC(=O)c2ccc(C(F)(F)F)cc2)sc2ccccc21 (centres unmarked) [Example 64, 2-{2-[4-(trifluoromethyl)benzoylimino]benzo[d]thiazol-3(2H)-yl}butanoic acid] | 28.8 | 99.2 | 104.1 | 20.1 |
| CCOc1ccc2c(c1)sc(=NC(=O)c1cccc(Cl)c1)n2C(C)C(=O)O (centres unmarked) [Example 55, 2-{2-[(3-chlorobenzoyl)imino]-6-ethoxybenzo[d]thiazol-3(2H)-yl}propionic acid] | 41.4 | 106.0 | 105.3 | 22 |
| CC(C(=O)O)n1c(=NC(=O)c2cccc(C(F)(F)F)c2)sc2ccccc21 (centres unmarked) [Example 133, 2-{2-[3-(trifluoromethyl)benzoylimino]benzo[d]thiazol-3(2H)-yl}propionic acid] | 33.2 | 82.1 | 92.8 | 11.4 |
| CC(C(=O)O)n1c(=NC(=O)c2cccc(Cl)c2)sc2c(F)c(Cl)ccc21 (centres unmarked) [Example 385, 2-(6-chloro-2-((3-chlorobenzoyl)imino)-7-fluorobenzo[d]thiazol-3(2H)-yl)propionic acid] | 11.6 | 108.2 | 99.1 | 25.4 |
| CCC(C(=O)O)n1c(=NC(=O)c2cccc(Cl)c2)sc2c(Cl)cccc21 (centres unmarked) [Example 310, 2-(7-chloro-2-((3-chlorobenzoyl)imino)benzo[d]thiazol-3(2H)-yl)butanoic acid] | 15.9 | 100.2 | 105.4 | 6.5 |
| CC(C(=O)O)n1c(=NC(=O)c2cccc(Cl)c2)sc2cc(C(F)(F)F)ccc21 (centres unmarked) [Example 172, 2-(2-((3-chlorobenzoyl)imino)-6-(trifluoromethyl)benzo[d]thiazol-3(2H)-yl)propionic acid] | 36.3 | 90.0 | 104.1 | 37.9 |
| CCC(C(=O)O)n1c(=NC(=O)c2cccc(Cl)c2)sc2c(F)c(F)ccc21 (centres unmarked) [Example 338, 2-(2-((3-chlorobenzoyl)imino)-6,7-difluorobenzo[d]thiazol-3(2H)-yl)butanoic acid] | 12.6 | 104.0 | 107.2 | 81.3 |

Reference: patent US20150011528A1, “PHENYLIMIDE-CONTAINING BENZOTHIAZOLE DERIVATIVE OF ITS SALT AND PHARMACEUTICAL COMPOSITION COMPRISING THE SAME” (YUHAN CORPORATION, priority 2011, published 2015)
